Patent publication US20260007681A1, “INDOLE DERIVATIVES AS ESTROGEN RECEPTOR DEGRADERS” (REGENTS OF THE UNIVERSITY OF MICHIGAN, priority 2022, published 2026)

Target: ER (Homo sapiens (Human), UniProt P03372)
Experiment: Western blot analysis (Compounds B1-B278)
Type: cell-based
Conditions: ER degradation by traditional Western blot; DC50 classes
Method: Western Blot Analysis. The cells that are treated with the compounds are lysed in Radioimmunoprecipitation Assay Protein Lysis and Extraction Buffer (e.g., 25 mmol/L Tris.HCl, pH 7.6, 150 mmol/L NaCl, 1% Nonidet P-40, 1% sodium deoxycholate, and 0.1% sodium dodecyl sulfate) containing proteinase inhibitor cocktail. Equal amounts of total protein are electrophoresed through 10% SDS-polyacrylamide gels after determination of protein concentration by BCA assay. The separated protein bands are transferred onto PVDF membranes and blotted against different antibodies. The blots are scanned, and the band intensities are quantified (e.g., by using GelQuant.NET software provided by biochemlabsolutions.com). The relative mean intensity of target proteins is expressed after normalization to the intensity of glyceraldehyde-3-phosphate dehydrogenase bands.
Western Blot Analysis. Western blot analysis was performed essentially as described previously. The cells treated with indicated compounds were lysed in Radioimmunoprecipitation Assay Protein Lysis and Extraction Buffer (25 mmol/L Tris.HCl, pH 7.6, 150 mmol/L NaCl, 1% Nonidet P-40, 1% sodium deoxycholate, and 0.1% sodium dodecyl sulfate) containing proteinase inhibitor cocktail (Roche Diagnostics, Mannheim, Germany). Equal amounts of total protein were electrophoresed through 10% SDS-polyacrylamide gels after determination of protein concentration by BCA assay (Fisher Scientific, Pittsburgh, PA). The separated protein bands were transferred onto PVDF membranes (GE Healthcare Life Sciences, Marlborough, MA) and blotted against different antibodies, as indicated. The blots were scanned, and the band intensities were quantified using GelQuant.NET software provided by biochemlabsolutions.com. The relative mean intensity of target proteins was expressed after normalization to the intensity of glyceraldehyde-3-phosphate dehydrogenase bands.

Sequence of ER (P03372 whole entry): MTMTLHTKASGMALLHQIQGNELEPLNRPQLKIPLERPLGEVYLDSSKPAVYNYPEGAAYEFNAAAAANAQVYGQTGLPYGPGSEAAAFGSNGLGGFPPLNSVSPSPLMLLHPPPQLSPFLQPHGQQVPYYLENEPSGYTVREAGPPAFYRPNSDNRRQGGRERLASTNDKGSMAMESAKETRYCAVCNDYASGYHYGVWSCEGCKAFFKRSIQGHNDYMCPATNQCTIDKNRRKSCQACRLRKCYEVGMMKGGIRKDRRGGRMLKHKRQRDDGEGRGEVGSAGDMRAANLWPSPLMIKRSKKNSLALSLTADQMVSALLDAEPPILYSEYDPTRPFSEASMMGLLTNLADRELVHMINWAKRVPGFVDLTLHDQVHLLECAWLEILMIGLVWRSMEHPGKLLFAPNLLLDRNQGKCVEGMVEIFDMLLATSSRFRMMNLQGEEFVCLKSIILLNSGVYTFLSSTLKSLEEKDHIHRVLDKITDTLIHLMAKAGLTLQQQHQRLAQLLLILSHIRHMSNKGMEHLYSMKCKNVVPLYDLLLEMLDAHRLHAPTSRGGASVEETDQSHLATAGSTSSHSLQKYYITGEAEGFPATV

## C[C@@H]1Cc2c([nH]c3ccccc23)[C@@H](c2c(F)cc(N3CCN(CCN4Cc5cc6c(cc5C4)C(=O)N(C4CCC(=O)NC4=O)C6)CC3)cc2F)N1CC(F)F (stereo partly drawn) [Compound B5, 3-(6-(2-(4-(4-((1R,3R)-2-(2,2-difluoroethyl)-3-methyl-2,3,4,9-tetrahydro-1H-pyrido[3,4-b]indol-1-yl)-3,5-difluorophenyl)piperazin-1-yl)ethyl)-1-oxo-3,5,6,7-tetrahydropyrrolo[3,4-f]isoindol-2(1H)-yl)piperidine-2,6-dione]
  Traditional Western Degradation Potency: B (“B”: 10-100 nM)

## C[C@@H]1Cc2c([nH]c3ccccc23)[C@@H](c2c(F)cc(N3CCC(N4CC(CC(=O)N5Cc6cc7c(cc6C5)C(=O)N(C5CCC(=O)NC5=O)C7=O)C4)CC3)cc2F)N1CC(F)F (stereo partly drawn) [Compound B6, 6-(2-(1-(1-(4-((1R,3R)-2-(2,2-difluoroethyl)-3-methyl-2,3,4,9-tetrahydro-1H-pyrido[3,4-b]indol-1-yl)-3,5-difluorophenyl)piperidin-4-yl)azetidin-3-yl)acetyl)-2-(2,6-dioxopiperidin-3-yl)-6,7-dihydropyrrolo[3,4-f]isoindole-1,3(2H,5H)-dione]
  Traditional Western Degradation Potency: C (“C”: >100 nM)

## C[C@@H]1Cc2c([nH]c3ccccc23)[C@@H](c2c(F)cc(N3CCC(N4CC(CC(=O)N5Cc6cc7c(cc6C5)C(=O)N(C5CCC(=O)NC5=O)C7)C4)CC3)cc2F)N1CC(F)F (stereo partly drawn) [Compound B7, 3-(6-(2-(1-(1-(4-((1R,3R)-2-(2,2-difluoroethyl)-3-methyl-2,3,4,9-tetrahydro-1H-pyrido[3,4-b]indol-1-yl)-3,5-difluorophenyl)piperidin-4-yl)azetidin-3-yl)acetyl)-1-oxo-3,5,6,7-tetrahydropyrrolo[3,4-f]isoindol-2(1H)-yl)piperidine-2,6-dione]
  Traditional Western Degradation Potency: B (“B”: 10-100 nM)

## C[C@@H]1Cc2c([nH]c3ccccc23)[C@@H](c2c(F)cc(N3CC4(CN(CC(=O)N5Cc6cc7c(cc6C5)C(=O)N(C5CCC(=O)NC5=O)C7)C4)C3)cc2F)N1CC(F)F (stereo partly drawn) [Compound B8, 3-(6-(2-(6-(4-((1R,3R)-2-(2,2-difluoroethyl)-3-methyl-2,3,4,9-tetrahydro-1H-pyrido[3,4-b]indol-1-yl)-3,5-difluorophenyl)-2,6-diazaspiro[3.3]heptan-2-yl)acetyl)-1-oxo-3,5,6,7-tetrahydropyrrolo[3,4-f]isoindol-2(1H)-yl)piperidine-2,6-dione]
  Traditional Western Degradation Potency: A (“A”: <10 nM)

## C[C@@H]1Cc2c([nH]c3ccccc23)[C@@H](c2c(F)cc(N3CC4(CCN(C(=O)CN5Cc6cc7c(cc6C5)C(=O)N(C5CCC(=O)NC5=O)C7)C4)C3)cc2F)N1CC(F)F (stereo partly drawn) [Compound B9, 3-(6-(2-(2-(4-((1R,3R)-2-(2,2-difluoroethyl)-3-methyl-2,3,4,9-tetrahydro-1H-pyrido[3,4-b]indol-1-yl)-3,5-difluorophenyl)-2,6-diazaspiro[3.4]octan-6-yl)-2-oxoethyl)-1-oxo-3,5,6,7-tetrahydropyrrolo[3,4-f]isoindol-2(1H)-yl)piperidine-2,6-dione]
  Traditional Western Degradation Potency: A (“A”: <10 nM)

## C[C@@H]1Cc2c([nH]c3ccccc23)[C@@H](c2c(F)cc(N3CCC4(CCN(C(=O)CN5Cc6cc7c(cc6C5)C(=O)N(C5CCC(=O)NC5=O)C7)C4)C3)cc2F)N1CC(F)F (stereo partly drawn) [Compound B11, 3-(6-(2-(7-(4-((1R,3R)-2-(2,2-difluoroethyl)-3-methyl-2,3,4,9-tetrahydro-1H-pyrido[3,4-b]indol-1-yl)-3,5-difluorophenyl)-2,7-diazaspiro[4.4]nonan-2-yl)-2-oxoethyl)-1-oxo-3,5,6,7-tetrahydropyrrolo[3,4-f]isoindol-2(1H)-yl)piperidine-2,6-dione]
  Traditional Western Degradation Potency: B (“B”: 10-100 nM)

## C[C@@H]1Cc2c([nH]c3ccccc23)[C@@H](c2c(F)cc(N3CC4(CCCN(C(=O)CN5Cc6cc7c(cc6C5)C(=O)N(C5CCC(=O)NC5=O)C7)C4)C3)cc2F)N1CC(F)F (stereo partly drawn) [Compound B12, 3-(6-(2-(2-(4-((1R,3R)-2-(2,2-difluoroethyl)-3-methyl-2,3,4,9-tetrahydro-1H-pyrido[3,4-b]indol-1-yl)-3,5-difluorophenyl)-2,6-diazaspiro[3.5]nonan-6-yl)-2-oxoethyl)-1-oxo-3,5,6,7-tetrahydropyrrolo[3,4-f]isoindol-2(1H)-yl)piperidine-2,6-dione]
  Traditional Western Degradation Potency: C (“C”: >100 nM)

## C[C@@H]1Cc2c([nH]c3ccccc23)[C@@H](c2c(F)cc(N3CCCC4(CN(C(=O)CN5Cc6cc7c(cc6C5)C(=O)N(C5CCC(=O)NC5=O)C7)C4)C3)cc2F)N1CC(F)F (stereo partly drawn) [Compound B13, 3-(6-(2-(6-(4-((1R,3R)-2-(2,2-difluoroethyl)-3-methyl-2,3,4,9-tetrahydro-1H-pyrido[3,4-b]indol-1-yl)-3,5-difluorophenyl)-2,6-diazaspiro[3.5]nonan-2-yl)-2-oxoethyl)-1-oxo-3,5,6,7-tetrahydropyrrolo[3,4-f]isoindol-2(1H)-yl)piperidine-2,6-dione]
  Traditional Western Degradation Potency: B (“B”: 10-100 nM)

## C[C@@H]1Cc2c([nH]c3ccccc23)[C@@H](c2c(F)cc(N3CC4(CN(C(=O)CN5Cc6cc7c(cc6C5)C(=O)N(C5CCC(=O)NC5=O)C7)C4)C3)cc2F)N1CC(F)F (stereo partly drawn) [Compound B14, 3-(6-(2-(6-(4-((1R,3R)-2-(2,2-difluoroethyl)-3-methyl-2,3,4,9-tetrahydro-1H-pyrido[3,4-b]indol-1-yl)-3,5-difluorophenyl)-2,6-diazaspiro[3.3]heptan-2-yl)-2-oxoethyl)-1-oxo-3,5,6,7-tetrahydropyrrolo[3,4-b]isoindol-2(1H)-yl)piperidine-2,6-dione]
  Traditional Western Degradation Potency: A (“A”: <10 nM)

## C[C@@H]1Cc2c([nH]c3ccccc23)[C@@H](c2c(F)cc(N3CCC4(CN(C(=O)CN5Cc6cc7c(cc6C5)C(=O)N(C5CCC(=O)NC5=O)C7)C4)C3)cc2F)N1CC(F)F (stereo partly drawn) [Compound B15, 3-(6-(2-(6-(4-((1R,3R)-2-(2,2-difluoroethyl)-3-methyl-2,3,4,9-tetrahydro-1H-pyrido[3,4-b]indol-1-yl)-3,5-difluorophenyl)-2,6-diazaspiro[3.4]octan-2-yl)-2-oxoethyl)-1-oxo-3,5,6,7-tetrahydropyrrolo[3,4-f]isoindol-2(1H)-yl)piperidine-2,6-dione]
  Traditional Western Degradation Potency: A (“A”: <10 nM)

## C[C@@H]1Cc2c([nH]c3ccccc23)[C@@H](c2c(F)cc(N3CC4(CCN(CC(=O)N5Cc6cc7c(cc6C5)C(=O)N(C5CCC(=O)NC5=O)C7)C4)C3)cc2F)N1CC(F)F (stereo partly drawn) [Compound B16, 3-(6-(2-(2-(4-((1R,3R)-2-(2,2-difluoroethyl)-3-methyl-2,3,4,9-tetrahydro-1H-pyrido[3,4-b]indol-1-yl)-3,5-difluorophenyl)-2,6-diazaspiro[3.4]octan-6-yl)acetyl)-1-oxo-3,5,6,7-tetrahydropyrrolo[3,4-f]isoindol-2(1H)-yl)piperidine-2,6-dione]
  Traditional Western Degradation Potency: A (“A”: <10 nM)

## C[C@@H]1Cc2c([nH]c3ccccc23)[C@@H](c2c(F)cc(N3CC4(CCN(CC(=O)N5Cc6cc7c(cc6C5)C(=O)N(C5CCC(=O)NC5=O)C7=O)C4)C3)cc2F)N1CC(F)F (stereo partly drawn) [Compound B17, 6-(2-(2-(4-((1R,3R)-2-(2,2-difluoroethyl)-3-methyl-2,3,4,9-tetrahydro-1H-pyrido[3,4-b]indol-1-yl)-3,5-difluorophenyl)-2,6-diazaspiro[3.4]octan-6-yl)acetyl)-2-(2,6-dioxopiperidin-3-yl)-6,7-dihydropyrrolo[3,4-f]isoindole-1,3(2H,5H)-dione]
  Traditional Western Degradation Potency: B (“B”: 10-100 nM)

## C[C@@H]1Cc2c([nH]c3ccccc23)[C@@H](c2c(F)cc(N3CCC4(CCN(CC(=O)N5Cc6cc7c(cc6C5)C(=O)N(C5CCC(=O)NC5=O)C7=O)C4)C3)cc2F)N1CC(F)F (stereo partly drawn) [Compound B19, 6-(2-(7-(4-((1R,3R)-2-(2,2-difluoroethyl)-3-methyl-2,3,4,9-tetrahydro-1H-pyrido[3,4-b]indol-1-yl)-3,5-difluorophenyl)-2,7-diazaspiro[4.4]nonan-2-yl)acetyl)-2-(2,6-dioxopiperidin-3-yl)-6,7-dihydropyrrolo[3,4-f]isoindole-1,3(2H,5H)-dione]
  Traditional Western Degradation Potency: C (“C”: >100 nM)

## C[C@@H]1Cc2c([nH]c3ccccc23)[C@@H](c2c(F)cc(N3CC4(CCN(C(=O)CN5Cc6cc7c(cc6C5)C(=O)N(C5CCC(=O)NC5=O)C7=O)C4)C3)cc2F)N1CC(F)F (stereo partly drawn) [Compound B20, 6-(2-(2-(4-((1R,3R)-2-(2,2-difluoroethyl)-3-methyl-2,3,4,9-tetrahydro-1H-pyrido[3,4-b]indol-1-yl)-3,5-difluorophenyl)-2,6-diazaspiro[3.4]octan-6-yl)-2-oxoethyl)-2-(2,6-dioxopiperidin-3-yl)-6,7-dihydropyrrolo[3,4-f]isoindole-1,3(2H,5H)-dione]
  Traditional Western Degradation Potency: A (“A”: <10 nM)
